US12583820B2, “Broad spectrum antivirals against coronavirus” (priority 2020, dated 2026)
Where two headings read alike, the source gives them in different places.

How the values were obtained:
[1] = Nonspecific cytotoxic effects (CC50), CytoTox 96 kit
3CLpro of MERS-CoV = 3CLpro of MERS-CoV (Middle East respiratory syndrome-related coronavirus, UniProt K9N7C7); assay: biochemical; type: biochemical
[2] = tested on: NV in the replicon harboring cells (HG23 cells); assay: microbe, parasite or virus in culture; type: cell-based, norovirus (NV); conditions: read-out: EC50 (μM) ± SD
3CLpro of SARS-CoV-2 = target: T1, 3CLpro of SARS-CoV-2 (Severe acute respiratory syndrome coronavirus 2, UniProt P0DTD1); assay: biochemical; type: biochemical
T1 construct: The codon-optimized cDNA of full length of 3CLpro of SARS-CoV-2; 6xHis (N); made in house; pET-28a(+) vector (points to E. coli, my inference)

Sequence of 3CLpro of MERS-CoV (K9N7C7 3248-3553 limits assumed): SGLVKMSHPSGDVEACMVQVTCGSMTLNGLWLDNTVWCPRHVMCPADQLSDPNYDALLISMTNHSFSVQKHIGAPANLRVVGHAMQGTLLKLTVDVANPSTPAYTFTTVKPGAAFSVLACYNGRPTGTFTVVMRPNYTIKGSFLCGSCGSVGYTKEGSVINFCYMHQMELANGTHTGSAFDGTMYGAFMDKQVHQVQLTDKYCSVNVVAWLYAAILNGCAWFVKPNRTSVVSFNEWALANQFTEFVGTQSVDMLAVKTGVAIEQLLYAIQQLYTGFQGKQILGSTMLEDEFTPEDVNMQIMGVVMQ

SMILES | CC50 at 72 h [1] [nM] | IC50 (3CLpro of MERS-CoV) [nM] | IC50 (3CLpro of SARS-CoV-2) [nM] | also measured
CCCC(OC(=O)N[C@@H](CC(C)C)C(=O)N[C@@H](C[C@@H]1CCNC1=O)C(O)S(=O)(=O)O)c1ccccc1 (mixture of isomers) [Compound 23c, Sodium(2S)-1-hydroxy-2-((2S)-4-methyl-2-(((1-phenylbutoxy)carbonyl)amino)pentanamido)-3-((S)-2-oxopyrrolidin-3-yl)propane-1-sulfonate] | > 100000 |  |  | IC50 (3CLpro of MERS-CoV; read-out: IC50): 130 nM
CCCCCC(=O)OC([C@H](C[C@@H]1CCNC1=O)NC(=O)[C@H](CC1CCCCC1)NC(=O)OCC(C)(C)Cc1cccc(Cl)c1)S(=O)(=O)O (some centres unmarked) [Compound 7l] |  |  |  | CC50 (HG23 cells): 20700 ± 4030 nM; EC50 [2]: 0.08 ± 0.02 µM
O=C[C@H](C[C@@H]1CCNC1=O)NC(=O)[C@H](CC1CCCCC1)NC(=O)OCCCc1cccc(Cl)c1 [Compound 5j (Example 5)] |  |  |  | CC50 (HG23 cells): 30300 ± 2830 nM; EC50 [2]: 0.08 ± 0.01 µM
CC(C)C[C@H](NC(=O)OCCCC1CCCCC1)C(=O)N[C@@H](C[C@@H]1CCNC1=O)C(O)S(=O)(=O)O (stereo partly drawn) [Compound 7f (Scheme 1), sodium (2S)-2-((S)-2-(((3-cyclohexylpropoxy)carbonyl)amino)-4-methylpentanamido)-1-hydroxy-3-((S)-2-oxopyrrolidin-3-yl)propane-1-sulfonate] | > 100000 | 640 |  | 
O=C(N[C@@H](CC1CCCCC1)C(=O)N[C@@H](C[C@@H]1CCNC1=O)C(O)S(=O)(=O)O)OC1CCC(F)(F)CC1 (stereo partly drawn) [Compound 7i (Scheme 1), sodium (2S)-2-((S)-3-cyclohexyl-2-((((4,4-difluorocyclohexyl)oxy)carbonyl)amino)propan-amido)-1-hydroxy-3-((S)-2-oxopyrrolidin-3-yl)propane-1-sulfonate] | > 100000 | > 50000 |  | 
CCCCC1CCC(OC(=O)NC(CC(C)C)C(=O)NC(CC2CCNC2=O)C(O)S(=O)(=O)O)CC1 [Compound 4c, Sodium (2S)-2-((S)-2-(((((1s,4S)-4-butylcyclohexyl)oxy)carbonyl)amino)-4-methylpentan amido)-1-hydroxy-3-((S)-2-oxopyrrolidin-3-yl)propane-1-sulfonate] | > 100000 | 150 |  | 
CC(C)C[C@H](NC(=O)OC(C)(C)C1CCC(F)(F)CC1)C(=O)N[C@H](C=O)C[C@@H]1CCNC1=O [Compound 13b, 2-(4,4-Difluorocyclohexyl)propan-2-yl ((S)-4-methyl-1-oxo-1-(((S)-1-oxo-3-((S)-2-oxopyrrolidin-3-yl)propan-2-yl)amino)pentan-2-yl)carbamate] | > 100000 |  | 800 | 
CC(C)C[C@H](NC(=O)OCc1c(F)c(F)c(F)c(F)c1F)C(=O)N[C@@H](CC1CCNC1=O)C(O)S(=O)(=O)O (stereo partly drawn) [Compound 21c, Sodium (2S)-1-hydroxy-2-((S)-4-methyl-2-((((perfluorophenyl)methoxy)carbonyl)amino)pentanamido)-3-(2-oxopyrrolidin-3-yl) propane-1-sulfonate] | > 100000 | 70 |  | 
CC(C)C[C@H](NC(=O)OCc1ccc(F)cc1)C(=O)N[C@@H](C[C@@H]1CCNC1=O)C(O)S(=O)(=O)O (stereo partly drawn) [Compound 19c, Sodium (2S)-2-((S)-2-((((4-fluorobenzyl)oxy)carbonyl)amino)-4-methylpentanamido)-1-hydroxy-3-((S)-2-oxopyrrolidin-3-yl)propane-1-sulfonate] | > 100000 |  | 380 | 
CC(C)C[C@H](NC(=O)OC(C)C1CCC(F)(F)CC1)C(=O)N[C@@H](C[C@@H]1CCNC1=O)C(O)S(=O)(=O)O (stereo partly drawn) [Compound 12c, Sodium (2S)-2-((2S)-2-(((1-(4,4-difluorocyclohexyl)ethoxy)carbonyl)amino)-4-methylpentan amido)-1-hydroxy-3-((S)-2-oxopyrrolidin-3-yl)propane-1-sulfonate] | > 100000 | 120 | 200 | 
CC(C)C[C@H](NC(=O)OC1CCC(C)(C)CC1)C(=O)N[C@@H](C[C@@H]1CCNC1=O)C(O)S(=O)(=O)O (stereo partly drawn) [Compound 1c, Sodium (2S)-2-((S)-2-((((4,4-dimethylcyclohexyl)oxy)carbonyl)amino)-4-methylpentan amido)-1-hydroxy-3-((S)-2-oxopyrrolidin-3-yl)propane-1-sulfonate] | > 100000 | 90 |  | IC50 (3CLpro of SARS-CoV-2; read-out: IC50): 240 nM
CC(C)C[C@H](NC(=O)OCc1cccc(F)c1)C(=O)N[C@@H](C[C@@H]1CCNC1=O)C(O)S(=O)(=O)O (stereo partly drawn) [Compound 18c, Sodium (2S)-2-((S)-2-((((3-fluorobenzyl)oxy)carbonyl)amino)-4-methylpentanamido)-1-hydroxy-3-((S)-2-oxopyrrolidin-3-yl)propane-1-sulfonate] | > 100000 | 80 | 310 | 
CC(C)C[C@H](NC(=O)OC(c1ccccc1)C1CCC(F)(F)CC1)C(=O)N[C@@H](C[C@@H]1CCNC1=O)C(O)S(=O)(=O)O (stereo partly drawn) [Compound 15c, Sodium (2S)-2-((2S)-2-((((4,4-difluorocyclohexyl)(phenyl)methoxy)carbonyl)amino)-4-methylpentanamido)-1-hydroxy-3-((S)-2-oxopyrrolidin-3-yl)propane-1-sulfonate] | > 100000 |  | 160 | 
CC(C)C[C@H](NC(=O)OC(Cc1ccccc1)c1ccccc1)C(=O)N[C@H](C=O)C[C@@H]1CCNC1=O (stereo partly drawn) [Compound 24b, 1,2-Diphenylethyl ((S)-4-methyl-1-oxo-1-(((S)-1-oxo-3-((S)-2-oxopyrrolidin-3-yl)propan-2-yl)amino)pentan-2-yl)carbamate] | > 100000 |  | 4100 | 
CCCCC1CCC(OC(=O)NC(CC(C)C)C(=O)NC(C=O)CC2CCNC2=O)CC1 [Compound 4b, (1s,4S)-4-Butylcyclohexyl ((S)-4-methyl-1-oxo-1-(((S)-1-oxo-3-((S)-2-oxopyrrolidin-3-yl)propan-2-yl)amino)pentan-2-yl)carbamate] | > 100000 |  | 160 | 
CC(C)C[C@H](NC(=O)OC(Cc1ccccc1)c1ccccc1)C(=O)N[C@@H](C[C@@H]1CCNC1=O)C(O)S(=O)(=O)O (stereo partly drawn) [Compound 24c, Sodium (2S)-2-((2S)-2-(((1,2-diphenylethoxy)carbonyl)amino)-4-methylpentanamido)-1-hydroxy-3-((S)-2-oxopyrrolidin-3-yl)propane-1-sulfonate] | > 100000 |  | 3500 | 
CCCC1CCC(COC(=O)NC(CC(C)C)C(=O)NC(C=O)CC2CCNC2=O)CC1 [Compound 8b, ((1r,4R)-4-Propylcyclohexyl) methyl ((2S)-4-methyl-1-oxo-1-(((2S)-1-oxo-3-(2-oxopyrrolidin-3-yl)propan-2-yl)amino)pentan-2-yl) carbamate] | > 100000 |  | 220 | 
CC(C)C[C@H](NC(=O)OCC(C)(C)Cc1cccc(Cl)c1)C(=O)N[C@H](C=O)C[C@@H]1CCNC1=O [Compound 5o] |  |  |  | CC50 (HG23 cells): > 100000 nM; EC50 [2]: 0.14 ± 0.04 µM
CC(C)C[C@H](NC(=O)OC(C)(C)C1CCC(F)(F)CC1)C(=O)N[C@@H](C[C@@H]1CCNC1=O)C(O)S(=O)(=O)[O-].[Na+] (stereo partly drawn) [Compound 13c, Sodium (2S)-2-((S)-2-((((2-(4,4-difluorocyclohexyl)propan-2-yl)oxy)carbonyl)amino)-4-methylpentanamido)-1-hydroxy-3-((S)-2-oxopyrrolidin-3-yl)propane-1-sulfonate] | > 100000 |  | 900 | fold higher IC50 than those of 12b and 14c (3CLpro of SARS-CoV-2): ~4 fold
CC(C)C[C@H](NC(=O)OCc1ccccc1F)C(=O)N[C@H](C=O)C[C@@H]1CCNC1=O [Compound 17b, 2-Fluorobenzyl ((S)-4-methyl-1-oxo-1-(((S)-1-oxo-3-((S)-2-oxopyrrolidin-3-yl)propan-2-yl)amino)pentan-2-yl)carbamate] | > 100000 |  | 380 | 
CCCCC(OC(=O)N[C@@H](CC(C)C)C(=O)N[C@H](C=O)C[C@@H]1CCNC1=O)C1CCC(F)(F)CC1 (stereo partly drawn) [Compound 16b, 1-(4,4-Difluorocyclohexyl)pentyl ((S)-4-methyl-1-oxo-1-(((S)-1-oxo-3-((S)-2-oxopyrrolidin-3-yl)propan-2-yl)amino)pentan-2-yl)carbamate] | > 100000 |  | 160 | 
CCCCC(OC(=O)N[C@@H](CC(C)C)C(=O)N[C@@H](C[C@@H]1CCNC1=O)C(O)S(=O)(=O)O)C1CCC(F)(F)CC1 (stereo partly drawn) [Compound 16c, Sodium (2S)-2-((2S)-2-((((1-(4,4-difluorocyclohexyl)pentyl)oxy)carbonyl)amino)-4-methylpentanamido)-1-hydroxy-3-((S)-2-oxopyrrolidin-3-yl)propane-1-sulfonate] | > 100000 |  | 250 | 
[2H]C([2H])(OC(=O)N[C@@H](CC(C)C)C(=O)N[C@@H](CC1CCNC1=O)C(O)S(=O)(=O)O)c1c(F)c(F)c(F)c(F)c1F (stereo partly drawn) [Compound 22c, Sodium (2S)-1-hydroxy-2-((S)-4-methyl-2-((((perfluorophenyl)methoxy-d2)carbonyl)amino)pentanamido)-3-(2-oxopyrrolidin-3-yl) propane-1-sulfonate] | > 100000 |  | 450 | 
CCCC1CCC(COC(=O)NC(CC(C)C)C(=O)NC(CC2CCNC2=O)C(O)S(=O)(=O)O)CC1 [Compound 8c, Sodium (2S)-1-hydroxy-2-((S)-4-methyl-2-(((((1r,4R)-4-propylcyclohexyl)methoxy)carbonyl)amino)pentanamido)-3-(2-oxopyrrolidin-3-yl) propane-1-sulfonate] | > 100000 | 110 | 210 | 
CC(C)C[C@H](NC(=O)OC(Cc1ccccc1)C1CCC(F)(F)CC1)C(=O)N[C@@H](C[C@@H]1CCNC1=O)C(O)S(=O)(=O)O (stereo partly drawn) [Compound 14c, Sodium (2S)-2-((2S)-2-(((1-(4,4-difluorocyclohexyl)-2-phenylethoxy)carbonyl)amino)-4-methylpentanamido)-1-hydroxy-3-((S)-2-oxopyrrolidin-3-yl)propane-1-sulfonate] | > 100000 | 160 | 220 | 
